Data on 7 compounds can be found in patent publication US9340590B2 (priority 2011, dated 2016).

Assay in all cases: cell-based
In one assay the target is hNav1.5 (Homo sapiens, UniProt Q14524).
The next assay has as its target hNav1.3 (Homo sapiens, UniProt Q9NY46). As to conditions: IonWorks Quattro, read-out: IWQ Use Nav1.3. For orientation: The patch-clamp technique gives a direct electrical read-out from membranes.
The next assay has as its target hNav1.7 (Homo sapiens, UniProt Q15858). It counts as cell-based.
The mark [1] stands for this setting: IonWorks Quattro, Use, read-out: IWQ Use Nav1.5.
The mark [2] stands for this setting: IonWorks Quattro, Use, read-out: IWQ Use Nav1.7.

Like-named read-outs stand apart in the source and are kept apart here. Positions of bridges follow the written chain, without caps; N, C: chain ends. Residues, ends and D or L forms follow the SMILES beside them.

hNav1.7, sequence (Q15858 whole entry, looked up): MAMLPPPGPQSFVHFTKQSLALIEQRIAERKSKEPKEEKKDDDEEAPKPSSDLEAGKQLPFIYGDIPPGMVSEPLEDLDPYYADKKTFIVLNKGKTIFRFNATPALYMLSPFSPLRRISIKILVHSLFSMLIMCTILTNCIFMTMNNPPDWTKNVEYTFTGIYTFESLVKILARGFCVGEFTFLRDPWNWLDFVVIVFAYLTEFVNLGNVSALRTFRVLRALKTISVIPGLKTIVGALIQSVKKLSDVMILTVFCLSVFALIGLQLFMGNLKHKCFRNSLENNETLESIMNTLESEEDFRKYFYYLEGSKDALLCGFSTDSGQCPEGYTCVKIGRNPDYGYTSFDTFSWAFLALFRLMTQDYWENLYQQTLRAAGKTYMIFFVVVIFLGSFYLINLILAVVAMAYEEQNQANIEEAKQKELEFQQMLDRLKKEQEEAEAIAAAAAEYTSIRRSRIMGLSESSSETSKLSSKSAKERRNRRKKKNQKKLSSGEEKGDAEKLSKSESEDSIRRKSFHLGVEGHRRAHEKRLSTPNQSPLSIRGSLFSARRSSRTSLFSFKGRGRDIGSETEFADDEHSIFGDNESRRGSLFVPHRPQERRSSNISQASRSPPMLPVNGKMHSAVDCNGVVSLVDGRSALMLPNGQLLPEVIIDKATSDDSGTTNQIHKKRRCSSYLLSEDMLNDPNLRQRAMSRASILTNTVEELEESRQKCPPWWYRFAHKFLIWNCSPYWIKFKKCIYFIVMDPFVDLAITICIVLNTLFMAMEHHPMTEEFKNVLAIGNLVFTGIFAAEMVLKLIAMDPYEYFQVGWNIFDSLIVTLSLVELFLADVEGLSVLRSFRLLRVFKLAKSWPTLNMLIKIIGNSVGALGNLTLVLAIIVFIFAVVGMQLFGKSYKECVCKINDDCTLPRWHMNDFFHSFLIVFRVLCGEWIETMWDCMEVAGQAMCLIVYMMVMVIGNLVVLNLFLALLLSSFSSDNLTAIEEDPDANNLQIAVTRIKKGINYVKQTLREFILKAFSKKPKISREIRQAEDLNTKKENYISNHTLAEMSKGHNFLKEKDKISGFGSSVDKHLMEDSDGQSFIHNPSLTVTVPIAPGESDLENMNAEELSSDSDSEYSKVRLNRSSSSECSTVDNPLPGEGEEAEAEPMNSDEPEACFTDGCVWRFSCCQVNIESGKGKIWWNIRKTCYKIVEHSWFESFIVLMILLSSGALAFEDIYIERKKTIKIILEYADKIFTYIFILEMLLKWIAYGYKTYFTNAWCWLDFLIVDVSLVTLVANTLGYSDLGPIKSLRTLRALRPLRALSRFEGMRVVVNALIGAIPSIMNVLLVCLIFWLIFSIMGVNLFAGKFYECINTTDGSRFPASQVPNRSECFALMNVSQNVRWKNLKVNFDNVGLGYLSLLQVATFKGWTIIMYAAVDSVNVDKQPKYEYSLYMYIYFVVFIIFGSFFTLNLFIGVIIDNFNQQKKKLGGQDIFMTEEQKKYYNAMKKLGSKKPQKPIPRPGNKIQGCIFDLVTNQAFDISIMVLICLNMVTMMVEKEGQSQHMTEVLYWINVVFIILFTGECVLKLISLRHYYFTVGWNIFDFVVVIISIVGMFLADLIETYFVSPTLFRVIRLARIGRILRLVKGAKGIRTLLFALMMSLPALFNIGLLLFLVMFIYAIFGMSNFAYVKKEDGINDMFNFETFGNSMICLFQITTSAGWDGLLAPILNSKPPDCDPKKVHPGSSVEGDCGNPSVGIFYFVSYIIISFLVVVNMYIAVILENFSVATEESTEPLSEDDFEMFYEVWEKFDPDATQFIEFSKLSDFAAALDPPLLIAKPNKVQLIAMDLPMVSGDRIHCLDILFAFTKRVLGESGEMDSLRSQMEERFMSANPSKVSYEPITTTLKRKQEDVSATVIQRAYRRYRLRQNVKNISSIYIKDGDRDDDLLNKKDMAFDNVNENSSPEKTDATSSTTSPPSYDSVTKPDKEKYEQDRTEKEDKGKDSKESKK
hNav1.3, sequence (Q9NY46 whole entry, looked up): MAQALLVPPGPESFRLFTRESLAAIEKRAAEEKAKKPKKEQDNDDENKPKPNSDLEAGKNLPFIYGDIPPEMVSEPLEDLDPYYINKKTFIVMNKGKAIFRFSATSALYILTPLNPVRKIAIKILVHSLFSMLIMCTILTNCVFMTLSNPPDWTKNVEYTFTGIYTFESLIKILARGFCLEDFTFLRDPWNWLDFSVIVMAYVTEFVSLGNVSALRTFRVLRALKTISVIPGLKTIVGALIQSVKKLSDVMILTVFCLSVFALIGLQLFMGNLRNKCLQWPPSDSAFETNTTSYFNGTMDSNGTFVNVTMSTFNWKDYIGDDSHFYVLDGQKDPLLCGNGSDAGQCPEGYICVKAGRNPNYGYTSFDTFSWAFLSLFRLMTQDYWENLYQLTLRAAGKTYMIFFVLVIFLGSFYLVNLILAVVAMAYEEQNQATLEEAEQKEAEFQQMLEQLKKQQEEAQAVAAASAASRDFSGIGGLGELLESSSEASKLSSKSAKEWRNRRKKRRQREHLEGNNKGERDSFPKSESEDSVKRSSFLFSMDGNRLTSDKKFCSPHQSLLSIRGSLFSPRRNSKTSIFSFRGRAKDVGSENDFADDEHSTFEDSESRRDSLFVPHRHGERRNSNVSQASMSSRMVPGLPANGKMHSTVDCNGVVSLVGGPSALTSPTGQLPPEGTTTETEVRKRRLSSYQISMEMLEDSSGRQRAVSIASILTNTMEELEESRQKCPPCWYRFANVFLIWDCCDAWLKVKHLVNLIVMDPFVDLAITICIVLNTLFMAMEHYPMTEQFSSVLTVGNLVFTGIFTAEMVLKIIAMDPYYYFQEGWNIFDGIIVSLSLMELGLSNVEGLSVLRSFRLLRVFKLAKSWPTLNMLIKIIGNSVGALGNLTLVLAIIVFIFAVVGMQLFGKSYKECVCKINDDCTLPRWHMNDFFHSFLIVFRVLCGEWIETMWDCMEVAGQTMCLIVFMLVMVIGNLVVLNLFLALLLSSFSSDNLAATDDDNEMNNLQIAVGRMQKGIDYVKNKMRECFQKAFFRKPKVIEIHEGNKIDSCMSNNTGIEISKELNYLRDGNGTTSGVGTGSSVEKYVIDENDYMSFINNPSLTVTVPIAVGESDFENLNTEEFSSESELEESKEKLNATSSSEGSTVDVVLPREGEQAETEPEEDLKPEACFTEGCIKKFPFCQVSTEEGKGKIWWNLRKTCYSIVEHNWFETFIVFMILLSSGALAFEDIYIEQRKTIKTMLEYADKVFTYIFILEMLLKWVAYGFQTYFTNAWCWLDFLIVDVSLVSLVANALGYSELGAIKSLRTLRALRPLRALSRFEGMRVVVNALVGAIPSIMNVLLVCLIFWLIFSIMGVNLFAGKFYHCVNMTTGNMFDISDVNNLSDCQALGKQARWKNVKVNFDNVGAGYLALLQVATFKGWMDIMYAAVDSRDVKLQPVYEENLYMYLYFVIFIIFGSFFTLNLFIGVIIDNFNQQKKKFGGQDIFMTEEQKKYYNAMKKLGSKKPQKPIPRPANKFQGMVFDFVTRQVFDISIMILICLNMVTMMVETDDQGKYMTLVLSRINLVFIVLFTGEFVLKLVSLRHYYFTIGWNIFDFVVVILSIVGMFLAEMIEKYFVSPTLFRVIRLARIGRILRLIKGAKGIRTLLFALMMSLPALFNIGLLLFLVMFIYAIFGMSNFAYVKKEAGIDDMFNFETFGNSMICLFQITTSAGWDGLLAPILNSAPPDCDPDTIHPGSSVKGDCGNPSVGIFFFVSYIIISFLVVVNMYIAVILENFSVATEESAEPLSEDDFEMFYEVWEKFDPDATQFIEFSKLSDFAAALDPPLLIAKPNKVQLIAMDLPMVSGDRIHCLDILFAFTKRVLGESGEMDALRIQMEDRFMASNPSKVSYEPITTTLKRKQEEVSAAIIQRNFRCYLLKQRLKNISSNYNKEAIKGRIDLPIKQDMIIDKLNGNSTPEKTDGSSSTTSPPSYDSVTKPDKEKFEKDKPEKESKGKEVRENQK

As for `CC[C@H](C)[C@@H]1NC(=O)[C@@H]2CSSC[C@@H]3NC(=O)[C@H](C(C)C)NC(=O)[C@H](CC(C)C)NC(=O)[C@H](CC(N)=O)NC(=O)[C@@H]4CCCN4C(=O)[C@H](CCCNC(=N)N)NC(=O)[C@H](CSSC[C@H](NC(=O)[C@@H](N)CC(=O)O)C(=O)N[C@@H](CC(C)C)C(=O)NCC(=O)N[C@@H](Cc4ccccc4)C(=O)N[C@@H](CCSC)C(=O)N[C@@H](CCCNC(=N)N)C(=O)N[C@@H](CCCCN)C(=O)N2)NC(=O)[C@H](CSSC[C@@H](C(=O)N[C@@H](CCCCN)C(=O)N[C@@H](Cc2ccc(O)cc2)C(=O)N[C@H](C(=O)N[C@@H](Cc2ccccc2)C(=O)N[C@@H](CCC(=O)O)C(N)=O)C(C)C)NC(=O)[C@H](Cc2c[nH]c4ccccc24)NC(=O)[C@H](CCCCN)NC(=O)[C@H](Cc2c[nH]cn2)NC(=O)[C@H]([C@@H](C)O)NC(=O)[C@H](CCCNC(=N)N)NC(=O)[C@H](CO)NC3=O)NC(=O)[C@H](CCCCN)NC(=O)[C@H](CC(=O)O)NC(=O)[C@H](CC(N)=O)NC(=O)[C@H](CC(=O)O)NC(=O)[C@@H]2CCCN2C1=O` [compound 35], the IC50 against hNav1.5 (IWQ Use Nav1.5 (μM)) was 19.6 µM; at hNav1.3 (use-dependent, […]), 2470 nM; at hNav1.7 (IonWorks Quattro, use-dependent, […], read-out: IWQ Use Nav1.7 (μm)), 4470 nM.
Regarding `CSCC[C@@H]1NC(=O)[C@H](Cc2ccccc2)NC(=O)CNC(=O)[C@H](CC(C)C)NC(=O)[C@@H](NC(=O)[C@@H](N)CC(=O)O)CSSC[C@@H]2NC(=O)[C@@H]3CSSC[C@@H](C(=O)N[C@@H](CCCCN)C(=O)N[C@@H](Cc4ccc(O)cc4)C(=O)N[C@H](C(=O)N[C@@H](Cc4ccccc4)C(N)=O)C(C)C)NC(=O)[C@H](Cc4c[nH]c5ccccc45)NC(=O)[C@H](CCCCN)NC(=O)[C@H](Cc4cnc[nH]4)NC(=O)[C@H]([C@@H](C)O)NC(=O)[C@H](CCCNC(=N)N)NC(=O)[C@H](CO)NC(=O)[C@H](CSSC[C@H](NC(=O)[C@H](CCCCN)NC(=O)[C@H](CCCNC(=N)N)NC1=O)C(=O)N[C@@H](CCCCN)C(=O)N1CCC[C@H]1C(=O)N[C@@H](CC(=O)O)C(=O)N[C@@H](CC(N)=O)C(=O)N[C@@H](CC(=O)O)C(=O)N[C@@H](CCCCN)C(=O)N3)NC(=O)[C@H](C(C)C)NC(=O)[C@H](CC(C)C)NC(=O)[C@H](CC(N)=O)NC(=O)[C@@H]1CCCN1C(=O)[C@H](CCCNC(=N)N)NC2=O` [compound 41] (H-DCLGFMRKCKPDNDKCCRPNLVCSRTHKWCKYVF-NH2; disulfide 2-17, 9-23, 16-30), the IC50 on hNav1.5 (setting [1]) was determined as 9 µM; on hNav1.3 (Use) it was 150 nM; on hNav1.7 (setting [2]) it was 240 nM.
As to `CC[C@H](C)[C@@H]1NC(=O)[C@@H]2CSSC[C@@H]3NC(=O)[C@H](C(C)C)NC(=O)[C@H](CC(C)C)NC(=O)[C@H](CC(N)=O)NC(=O)[C@@H]4CCCN4C(=O)[C@H](CCCNC(=N)N)NC(=O)[C@H](CSSC[C@H](NC(=O)[C@@H](N)CC(=O)O)C(=O)N[C@@H](CC(C)C)C(=O)NCC(=O)N[C@@H](Cc4ccccc4)C(=O)N[C@@H](CCSC)C(=O)N[C@@H](CCCNC(=N)N)C(=O)N[C@@H](CCCCN)C(=O)N2)NC(=O)[C@H](CSSC[C@@H](C(=O)N[C@@H](CCCCN)C(=O)N[C@@H](Cc2ccc(O)cc2)C(=O)N[C@H](C(=O)N[C@@H](Cc2ccccc2)C(N)=O)C(C)C)NC(=O)[C@H](Cc2c[nH]c4ccccc24)NC(=O)[C@H](CCCCN)NC(=O)[C@H](Cc2cnc[nH]2)NC(=O)[C@H]([C@@H](C)O)NC(=O)[C@H](CCCNC(=N)N)NC(=O)[C@H](CO)NC3=O)NC(=O)[C@H](CCCCN)NC(=O)[C@H](CC(=O)O)NC(=O)[C@H](CC(N)=O)NC(=O)[C@H](CC(=O)O)NC(=O)[C@H](C)NC1=O` [compound 46] (H-DCLGFMRKCIADNDKCCRPNLVCSRTHKWCKYVF-NH2; disulfide 2-17, 9-23, 16-30), the results for the IC50 at hNav1.5 (setting [1]), at hNav1.3 (Use) and at hNav1.7 (setting [2]) were 16.1 µM, 180 nM and 210 nM, respectively.
In the case of `CC[C@H](C)[C@@H]1NC(=O)[C@@H]2CSSC[C@@H]3NC(=O)[C@H](C(C)C)NC(=O)[C@H](CC(C)C)NC(=O)[C@H](CC(N)=O)NC(=O)[C@@H]4CCCN4C(=O)[C@H](CCCNC(=N)N)NC(=O)[C@H](CSSC[C@H](NC(=O)[C@@H](N)CC(=O)O)C(=O)N[C@@H](CC(C)C)C(=O)NCC(=O)N[C@@H](Cc4ccccc4)C(=O)N[C@@H](CCSC)C(=O)N[C@@H](CCCNC(=N)N)C(=O)N[C@@H](CCCCN)C(=O)N2)NC(=O)[C@H](CSSC[C@@H](C(=O)N[C@@H](CCCCN)C(=O)N[C@@H](Cc2ccc(O)cc2)C(=O)N[C@H](C(=O)N[C@@H](Cc2ccccc2)C(N)=O)C(C)C)NC(=O)[C@H](C)NC(=O)[C@H](CCCCN)NC(=O)[C@H](Cc2cnc[nH]2)NC(=O)[C@H]([C@@H](C)O)NC(=O)[C@H](CCCNC(=N)N)NC(=O)[C@H](CO)NC3=O)NC(=O)[C@H](CCCCN)NC(=O)[C@H](CC(=O)O)NC(=O)[C@H](CC(N)=O)NC(=O)[C@H](CC(=O)O)NC(=O)[C@@H]2CCCN2C1=O` [compound 47] (H-DCLGFMRKCIPDNDKCCRPNLVCSRTHKACKYVF-NH2; disulfide 2-17, 9-23, 16-30), the IC50 on hNav1.5 (Table 24, IonWorks Quattro, use, […], read-out: IWQ Use Nav1.5) came out at 16.2 µM; on hNav1.3 (Table 24, use, […]), 27500 nM; at hNav1.7 (Table 24, IonWorks Quattro, use, […], read-out: IWQ Use Nav1.7), 11700 nM.
Regarding `CC[C@H](C)[C@@H]1NC(=O)[C@@H]2CSSC[C@@H]3NC(=O)[C@H](C(C)C)NC(=O)[C@H](CC(C)C)NC(=O)[C@H](CC(N)=O)NC(=O)[C@@H]4CCCN4C(=O)[C@H](CCCCN)NC(=O)[C@H](CSSC[C@H](NC(=O)[C@@H](N)CC(=O)O)C(=O)N[C@@H](CC(C)C)C(=O)NCC(=O)N[C@@H](Cc4ccccc4)C(=O)N[C@@H](CCSC)C(=O)N[C@@H](CCCNC(=N)N)C(=O)N[C@@H](CCCCN)C(=O)N2)NC(=O)[C@H](CSSC[C@@H](C(=O)N[C@@H](CCCCN)C(=O)N[C@@H](Cc2ccc(O)cc2)C(=O)N[C@H](C(=O)N[C@@H](Cc2ccccc2)C(N)=O)C(C)C)NC(=O)[C@H](Cc2c[nH]c4ccccc24)NC(=O)[C@H](CCCCN)NC(=O)[C@H](Cc2cnc[nH]2)NC(=O)[C@H]([C@@H](C)O)NC(=O)[C@H](CCCNC(=N)N)NC(=O)[C@H](CO)NC3=O)NC(=O)[C@H](CCCCN)NC(=O)[C@H](CC(=O)O)NC(=O)[C@H](CC(N)=O)NC(=O)[C@H](CC(=O)O)NC(=O)[C@@H]2CCCN2C1=O` [compound 49] (H-DCLGFMRKCIPDNDKCCKPNLVCSRTHKWCKYVF-NH2; disulfide 2-17, 9-23, 16-30), the IC50 was found to be 17.6 µM at hNav1.5 (setting [1]), 210 nM on hNav1.3 (Use) and 300 nM at hNav1.7.
As to `CC[C@H](C)[C@@H]1NC(=O)[C@@H]2CSSC[C@@H]3NC(=O)[C@H](C(C)C)NC(=O)[C@H](CC(C)C)NC(=O)[C@H](CCCCN)NC(=O)[C@@H]4CCCN4C(=O)[C@H](CCCNC(=N)N)NC(=O)[C@H](CSSC[C@H](NC(=O)[C@@H](N)CC(=O)O)C(=O)N[C@@H](CC(C)C)C(=O)NCC(=O)N[C@@H](Cc4ccccc4)C(=O)N[C@@H](CCSC)C(=O)N[C@@H](CCCNC(=N)N)C(=O)N[C@@H](CCCCN)C(=O)N2)NC(=O)[C@H](CSSC[C@@H](C(=O)N[C@@H](CCCCN)C(=O)N[C@@H](Cc2ccc(O)cc2)C(=O)N[C@H](C(=O)N[C@@H](Cc2ccccc2)C(N)=O)C(C)C)NC(=O)[C@H](Cc2c[nH]c4ccccc24)NC(=O)[C@H](CCCCN)NC(=O)[C@H](Cc2cnc[nH]2)NC(=O)[C@H]([C@@H](C)O)NC(=O)[C@H](CCCNC(=N)N)NC(=O)[C@H](CO)NC3=O)NC(=O)[C@H](CCCCN)NC(=O)[C@H](CC(=O)O)NC(=O)[C@H](CC(N)=O)NC(=O)[C@H](CC(=O)O)NC(=O)[C@@H]2CCCN2C1=O` [compound 51] (H-DCLGFMRKCIPDNDKCCRPKLVCSRTHKWCKYVF-NH2; disulfide 2-17, 9-23, 16-30), the results for the IC50 on hNav1.5 (setting [1]), at hNav1.3 (Use) and on hNav1.7 (setting [2]) were 19 µM, 330 nM and 610 nM, respectively.
In the case of `CC[C@H](C)[C@@H]1NC(=O)[C@@H]2CSSC[C@@H]3NC(=O)[C@H](CCCCN)NC(=O)[C@H](CC(C)C)NC(=O)[C@H](CC(N)=O)NC(=O)[C@@H]4CCCN4C(=O)[C@H](CCCNC(=N)N)NC(=O)[C@H](CSSC[C@H](NC(=O)[C@@H](N)CC(=O)O)C(=O)N[C@@H](CC(C)C)C(=O)NCC(=O)N[C@@H](Cc4ccccc4)C(=O)N[C@@H](CCSC)C(=O)N[C@@H](CCCNC(=N)N)C(=O)N[C@@H](CCCCN)C(=O)N2)NC(=O)[C@H](CSSC[C@@H](C(=O)N[C@@H](CCCCN)C(=O)N[C@@H](Cc2ccc(O)cc2)C(=O)N[C@H](C(=O)N[C@@H](Cc2ccccc2)C(N)=O)C(C)C)NC(=O)[C@H](Cc2c[nH]c4ccccc24)NC(=O)[C@H](CCCCN)NC(=O)[C@H](Cc2cnc[nH]2)NC(=O)[C@H]([C@@H](C)O)NC(=O)[C@H](CCCNC(=N)N)NC(=O)[C@H](CO)NC3=O)NC(=O)[C@H](CCCCN)NC(=O)[C@H](CC(=O)O)NC(=O)[C@H](CC(N)=O)NC(=O)[C@H](CC(=O)O)NC(=O)[C@@H]2CCCN2C1=O` [compound 52] (H-DCLGFMRKCIPDNDKCCRPNLKCSRTHKWCKYVF-NH2; disulfide 2-17, 9-23, 16-30), the IC50 at hNav1.5 (setting [1]) is 15 µM; on hNav1.3 (Use) it was 80 nM; against hNav1.7, 190 nM.
